Data reported in US11945813B2, “5-substituted 4-amino-1H-benzo[c][1,2,6]thiadiazine 2,2-dioxides and formulations and uses thereof” (Firmenich Incorporated, priority 2018, dated 2024).

Target: T1, T1R2/T1R3 taste receptor (Homo sapiens, UniProt Q8TE23)
T1 sequence (Q8TE23 20-839): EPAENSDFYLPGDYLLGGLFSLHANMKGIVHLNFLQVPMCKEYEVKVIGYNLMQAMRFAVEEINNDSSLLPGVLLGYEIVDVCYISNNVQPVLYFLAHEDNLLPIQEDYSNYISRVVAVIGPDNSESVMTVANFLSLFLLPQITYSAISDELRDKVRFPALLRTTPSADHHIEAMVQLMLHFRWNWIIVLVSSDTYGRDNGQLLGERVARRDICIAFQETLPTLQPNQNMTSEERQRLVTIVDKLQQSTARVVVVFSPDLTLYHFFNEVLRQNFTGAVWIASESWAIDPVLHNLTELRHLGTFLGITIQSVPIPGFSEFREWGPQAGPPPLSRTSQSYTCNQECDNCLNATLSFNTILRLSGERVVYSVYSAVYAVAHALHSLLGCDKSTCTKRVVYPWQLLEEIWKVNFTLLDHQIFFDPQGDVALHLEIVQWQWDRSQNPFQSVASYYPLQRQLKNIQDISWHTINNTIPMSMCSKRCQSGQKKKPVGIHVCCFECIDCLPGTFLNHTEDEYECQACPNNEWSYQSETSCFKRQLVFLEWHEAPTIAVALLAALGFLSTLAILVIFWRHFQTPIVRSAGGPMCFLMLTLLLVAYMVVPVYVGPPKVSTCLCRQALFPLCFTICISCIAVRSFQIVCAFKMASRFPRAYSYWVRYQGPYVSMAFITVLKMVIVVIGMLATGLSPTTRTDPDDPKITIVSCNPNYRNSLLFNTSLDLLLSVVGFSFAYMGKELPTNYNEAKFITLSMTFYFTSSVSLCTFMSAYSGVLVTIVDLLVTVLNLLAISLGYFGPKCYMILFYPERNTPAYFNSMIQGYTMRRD
T1 sequence (Q7RTX0 21-852 partner): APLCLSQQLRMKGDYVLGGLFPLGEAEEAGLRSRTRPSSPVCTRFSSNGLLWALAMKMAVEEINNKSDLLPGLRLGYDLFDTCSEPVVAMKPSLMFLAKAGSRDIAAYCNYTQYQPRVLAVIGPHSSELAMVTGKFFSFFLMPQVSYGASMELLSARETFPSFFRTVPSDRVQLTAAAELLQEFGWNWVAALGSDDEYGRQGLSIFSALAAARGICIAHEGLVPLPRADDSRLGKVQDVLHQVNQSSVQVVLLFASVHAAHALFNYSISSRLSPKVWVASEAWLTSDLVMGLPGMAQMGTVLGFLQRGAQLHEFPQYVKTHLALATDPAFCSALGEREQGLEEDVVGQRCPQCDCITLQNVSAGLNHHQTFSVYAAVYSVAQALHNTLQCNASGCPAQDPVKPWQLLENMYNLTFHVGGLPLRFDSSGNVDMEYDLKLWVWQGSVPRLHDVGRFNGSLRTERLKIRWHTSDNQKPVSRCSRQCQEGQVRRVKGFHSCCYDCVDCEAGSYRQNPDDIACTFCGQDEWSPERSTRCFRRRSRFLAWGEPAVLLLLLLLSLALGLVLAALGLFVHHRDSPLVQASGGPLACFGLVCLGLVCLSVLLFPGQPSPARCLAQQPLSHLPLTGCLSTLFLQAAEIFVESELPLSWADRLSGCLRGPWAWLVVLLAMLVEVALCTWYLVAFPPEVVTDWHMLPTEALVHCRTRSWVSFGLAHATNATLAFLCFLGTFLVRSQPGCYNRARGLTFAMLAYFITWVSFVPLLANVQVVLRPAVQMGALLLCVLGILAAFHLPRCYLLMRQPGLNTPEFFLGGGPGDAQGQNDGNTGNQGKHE
Experiment: Receptor-based assay: sweetener EC50 alone and with test compound (enhancement ratio)
Type: cell-based
Conditions: for Fructose Enhancement EC50 Ratio: sweetener fructose; for Sucralose Enhancement EC50 Ratio: sweetener sucralose; for Sucrose Enhancement EC50 Ratio: sweetener sucrose
Protocol: Potencies (EC50 values) for the sweeteners sucrose, sucralose, and fructose were measured against the T1R2/T1R3 taste receptor. EC50 was determined using the sweetener alone and in the presence of 3 μM, 10 μM, or 50 μM of test compound. EC50 ratios were calculated by the ratio of potency with and without the test compound. An “A” value indicates an enhancement ratio of greater than 20. A “B” value indicates an enhancement ratio from 10 to 20. A “C” value indicates an enhancement ratio greater than 1 and less than 10.

Structure (SMILES)	Fructose Enhancement EC50 Ratio (10 μM test compound)	Fructose Enhancement EC50 Ratio (50 μM test compound)	Sucralose Enhancement EC50 Ratio (10 μM test compound)	Sucralose Enhancement EC50 Ratio (50 μM test compound)	Sucrose Enhancement EC50 Ratio (3 μM test compound)	Sucrose Enhancement EC50 Ratio (10 μM test compound)	Sucrose Enhancement EC50 Ratio (50 μM test compound)
CCCNc1nccc(NC(C)(C)COc2cccc3c2C(N)=NS(=O)(=O)N3)n1 [Compound 208]	C (A “C” value indicates an enhancement ratio greater than 1 and less than 10)	C (A “C” value indicates an enhancement ratio greater than 1 and less than 10)	A (An “A” value indicates an enhancement ratio of greater than 20)	A (An “A” value indicates an enhancement ratio of greater than 20)	C (A “C” value indicates an enhancement ratio greater than 1 and less than 10)	C (A “C” value indicates an enhancement ratio greater than 1 and less than 10)	C (A “C” value indicates an enhancement ratio greater than 1 and less than 10)
Cc1cc(C)nc(N2CCC[C@H](COc3cccc4c3C(N)=NS(=O)(=O)N4)C2)n1 [Compound 300, (S)-4-amino-5-((1-(4,6-dimethylpyrimidin-2-yl)piperidin-3-yl)methoxy)-1H-benzo[c][1,2,6]thiadiazine 2,2-dioxide]			A (An “A” value indicates an enhancement ratio of greater than 20)	A (An “A” value indicates an enhancement ratio of greater than 20)	C (A “C” value indicates an enhancement ratio greater than 1 and less than 10)	C (A “C” value indicates an enhancement ratio greater than 1 and less than 10)	C (A “C” value indicates an enhancement ratio greater than 1 and less than 10)
NC1=NS(=O)(=O)Nc2cccc(OC[C@H]3CCCN(c4cccc(C(=O)O)n4)C3)c21 [Compound 301, (S)-6-(3-(((4-amino-2,2-dioxido-1H-benzo[c][1,2,6]thiadiazin-5-yl)oxy)methyl)piperidin-1-yl)picolinic acid]			A (An “A” value indicates an enhancement ratio of greater than 20)	A (An “A” value indicates an enhancement ratio of greater than 20)	C (A “C” value indicates an enhancement ratio greater than 1 and less than 10)	C (A “C” value indicates an enhancement ratio greater than 1 and less than 10)	C (A “C” value indicates an enhancement ratio greater than 1 and less than 10)
NC1=NS(=O)(=O)Nc2cccc(OC[C@H]3CCCN(c4ccc(C(=O)O)cn4)C3)c21 [Compound 302]	C (A “C” value indicates an enhancement ratio greater than 1 and less than 10)	C (A “C” value indicates an enhancement ratio greater than 1 and less than 10)	A (An “A” value indicates an enhancement ratio of greater than 20)	A (An “A” value indicates an enhancement ratio of greater than 20)	C (A “C” value indicates an enhancement ratio greater than 1 and less than 10)	C (A “C” value indicates an enhancement ratio greater than 1 and less than 10)	C (A “C” value indicates an enhancement ratio greater than 1 and less than 10)
NC1=NS(=O)(=O)Nc2cccc(OC[C@H]3CCCN(c4cc(C(=O)O)ccn4)C3)c21 [Compound 303]		C (A “C” value indicates an enhancement ratio greater than 1 and less than 10)	C (A “C” value indicates an enhancement ratio greater than 1 and less than 10)	A (An “A” value indicates an enhancement ratio of greater than 20)	C (A “C” value indicates an enhancement ratio greater than 1 and less than 10)	C (A “C” value indicates an enhancement ratio greater than 1 and less than 10)	C (A “C” value indicates an enhancement ratio greater than 1 and less than 10)
Cc1cnc(N2CCC[C@H](COc3cccc4c3C(N)=NS(=O)(=O)N4)C2)nc1 [Compound 304]	C (A “C” value indicates an enhancement ratio greater than 1 and less than 10)	C (A “C” value indicates an enhancement ratio greater than 1 and less than 10)	A (An “A” value indicates an enhancement ratio of greater than 20)	A (An “A” value indicates an enhancement ratio of greater than 20)	C (A “C” value indicates an enhancement ratio greater than 1 and less than 10)	C (A “C” value indicates an enhancement ratio greater than 1 and less than 10)	C (A “C” value indicates an enhancement ratio greater than 1 and less than 10)
NC1=NS(=O)(=O)Nc2cccc(OC[C@H]3CCCN(c4ncc(F)cn4)C3)c21 [Compound 305]	C (A “C” value indicates an enhancement ratio greater than 1 and less than 10)	C (A “C” value indicates an enhancement ratio greater than 1 and less than 10)	A (An “A” value indicates an enhancement ratio of greater than 20)	A (An “A” value indicates an enhancement ratio of greater than 20)	C (A “C” value indicates an enhancement ratio greater than 1 and less than 10)	C (A “C” value indicates an enhancement ratio greater than 1 and less than 10)	C (A “C” value indicates an enhancement ratio greater than 1 and less than 10)
COc1cc(OC)nc(N2CCC[C@H](COc3cccc4c3C(N)=NS(=O)(=O)N4)C2)n1 [Compound 306]	C (A “C” value indicates an enhancement ratio greater than 1 and less than 10)		B (A “B” value indicates an enhancement ratio from 10 to 20)	B (A “B” value indicates an enhancement ratio from 10 to 20)	C (A “C” value indicates an enhancement ratio greater than 1 and less than 10)	C (A “C” value indicates an enhancement ratio greater than 1 and less than 10)	C (A “C” value indicates an enhancement ratio greater than 1 and less than 10)
Cc1cc(C(=O)O)nc(N2CCC[C@H](COc3cccc4c3C(N)=NS(=O)(=O)N4)C2)n1 [Compound 307]	C (A “C” value indicates an enhancement ratio greater than 1 and less than 10)	C (A “C” value indicates an enhancement ratio greater than 1 and less than 10)	A (An “A” value indicates an enhancement ratio of greater than 20)	A (An “A” value indicates an enhancement ratio of greater than 20)	C (A “C” value indicates an enhancement ratio greater than 1 and less than 10)	C (A “C” value indicates an enhancement ratio greater than 1 and less than 10)	C (A “C” value indicates an enhancement ratio greater than 1 and less than 10)
